Laboratory results as given in patent US20210128414A1, “SELF-ASSEMBLED NANOSTRUCTURES AND COMPOSITE MATERIALS USABLE IN DENTAL APPLICATIONS CONTAINING SAME” (Ramot at Tel-Aviv University Ltd., priority 2018, published 2021).
Values belong to the compound of their own block, whether it stands above or below them.

What was measured:
[1] = system: 3T3 fibroblasts; assay: MTT cell viability analysis of composite restoratives; format: cell-based; details: nanostructure-incorporated composite versus composite alone; 18 hours, 37° C.
Procedure: (§1) The effect of the incorporation of Fmoc-F5-Phe on the cytotoxicity of the dental composite restoratives was tested. This was carried out by evaluating the effect of each amalgamated composite restorative (containing self-assembled nanostructures as described herein) on the viability of two cell lines; HeLa and 3T3 fibroblasts, using MTT analysis, as follows.
(§2) The 3T3 fibroblast cells and HeLa cells grown in Dulbecco's Modified Eagle's Medium (DMEM) supplemented with 10% fetal calf serum (FBS) (Biological Industries, Israel) were sub-cultured (2×10^5 cells/mL) in 96-well tissue microplates (100 μl per well) and were allowed to adhere overnight at 37° C. Inserts (in quadruplet) coated on one side with each of the nano-assembly incorporated resin composite restoratives were placed into the wells containing the adhered cells. After incubation for 18 hours at 37° C., cell viability was evaluated using the 3-(4,5-dimethylthiazolyl-2)-2,5-diphenyltetrazolium bromide (MTT) assay. Briefly, 10 μL of 5 mg/mL MTT dissolved in PBS was added to each well. After 4 hours incubation at 37° C., 100 μl of the extraction buffer [20% SDS dissolved in a solution of 50% dimethylformamide and 50% DDW (pH 4.7)] were added to each well, and the plates were incubated again at 37° C. for 30 minutes. Finally, color intensity was measured using an ELISA reader at 570 nm. […]

[2] = system: HeLa cells; assay: as above; format: cell-based; details: nanostructure-incorporated composite versus composite alone; 18 hours, 37° C.
Procedure: as §1, §2

[3] = system: S. mutans; assay: Minimum inhibitory concentration and kinetic growth inhibition analysis of nanostructures; format: cell-based, Streptococcus mutans
Procedure: The antibacterial capabilities of the obtained nanostructures were evaluated against S. mutans via a minimum inhibitory concentration (MIC) analysis and by kinetic growth inhibition analysis, as follows. S. mutans bacteria were grown under anaerobic conditions in brain heart infusion (BHI) medium (BD Difco) for 48 hours and then diluted to OD600 of 0.01 or 0.25 in BHI. Nanostructures samples, at an initial concentration of 8 mM, were added to the bacterial samples in 96-well plates in serial 2-fold dilutions, which were sealed to ensure anaerobic conditions. Kinetic growth inhibition was determined by optical density measurements (650 nm) using a Biotek Synergy HT microplate reader. The minimum inhibitory concentration (MIC) was determined using the microdilution assay, and evaluation of the reduction in colony-forming units was obtained by plating and counting bacterial samples before and after overnight treatment. […] The ability of the nanostructures to inhibit bacterial growth at a higher bacterial load, similar to that of an active infection was also tested. S. mutans cultures were grown until mid-log phase and were then treated with 2 mM samples of the nanostructures.

[4] = Occlusal fissure stability and optical property analyses; format: physicochemical; details: 2% w/w composite
Procedure: Occlusal Fissure Stability and Optical Property Analyses were also performed as follows.
Occlusal fissures were made via a diamond bur and then restored utilizing either the 2% nanostructure-containing restorative composites or a control (0%) restorative. The samples were contained for 30 days at 37° C. in sterile PBS. A Spectroshade Micro-MHT dental spectrophotometer normalized to the Vita classical color guide was then utilized to evaluate the color of the tested samples.

[5] = HPLC-based nanostructures release evaluation in sterile saliva; format: physicochemical; details: 37° C., 2% w/w composite
Procedure: Restorative composites incorporating 4 mg of the Fmoc-F5-Phe nanostructures to a final w/w % of 2% were examined following 24, 48 and 72 hours of incubation at 37° C. in sterile saliva.

[6] = system: S. mutans; assay: Bacterial morphology by high-resolution scanning electron microscopy; format: cell-based, Streptococcus mutans; details: overnight treatment with nanostructures
Procedure: The effect of Fmoc-F5-Phe nanostructures on bacterial morphology was studied using High-Resolution Scanning Electron Microscopy as follows.
Bacterial samples were centrifuged at 5000 rpm for 5 minutes, washed thrice in PBS, and fixed in 2.5% glutaraldehyde in PBS for 1 hour. The samples were then washed thrice in PBS and fixed in 1% OsO4 in PBS for 1 hour, followed by a dehydration series with ethanol. The samples were then left in absolute ethanol for 30 minutes and placed onto glass coverslips, followed by critical point drying and coating with gold. Micrographs were recorded using a JEOL JSM-6700F FE-SEM scanning electron microscope operating at 10 kV. The obtained micrographs shown in FIG. 1I are representative of three independent experiments.

[7] = system: S. mutans; assay: SYTOX Blue membrane permeation assay; format: cell-based, Streptococcus mutans; details: nanostructures, 3 hours incubation at 37° C.
Procedure: The effect of Fmoc-F5-Phe nanostructures on bacterial membrane permeation was also supported by a SYTOX Blue membrane permeation assay. SYTOX Blue is a cationic dye that cannot enter an intact cell unless its membrane is disrupted by external compounds. Inside the cell, SYTOX Blue stain binds to intracellular nucleic acids and fluoresces bright blue when excited with 405 nm violet laser light.
S. mutans bacteria were grown under anaerobic conditions in BHI medium (BD Difco) for 48 hours and diluted to 0.1 OD600. Fmoc-F5-Phe or ultrapure water (100 μL) as control was added to 300 μL of bacteria and incubated for 3 hours in 37° C. The bacterial cells were centrifuged for 5 minutes at 3700 rpm and incubated with 1 μM SYTOX blue (Thermo Fisher Scientific) for 30 minutes at 37° C. The samples were washed three times in PBS and examined by confocal microscopy LSM 510, excited at 405 nm (Zeiss, Germany).

[8] = system: S. mutans; assay: Live/Dead (Syto9/Propidium iodide) bacterial viability analysis of nanostructure-treated bacteria; format: cell-based, Streptococcus mutans; details: after kinetic analysis with nanostructures
Procedure: To directly assess bacterial viability, the bacteria were subjected to Live/Dead viability analysis containing Syto9 (indicating live bacteria) and Propidium iodide (PI) (indicating dead bacteria). Following kinetic analysis, the samples were washed thrice with saline, incubated for 15 minutes in a solution containing Syto9 and Propidium iodide (L13152 LIVE/DEAD BacLight Bacterial Viability Kit, Molecular Probes, OR), and washed with saline again. Fluorescence emission was detected using an ECLIPSE E600 fluorescent microscope (Nikon, Japan).

[9] = system: S. mutans; assay: Direct-contact kinetic analysis (direct-contact test) of polymerized composite materials; format: cell-based, Streptococcus mutans; details: 1 hour direct contact
Procedure: In order to evaluate the antimicrobial capabilities of the resin composite restoratives while simulating its clinical use, a direct-contact test (DCT) was carried out. This spectroscopic microplate reader based test, designed for compounds that are non-diffusible and non-soluble in water, allows measuring the effect of direct contact between the evaluated material and bacterial viability and growth. Four different W/W % samples of the resin composite material were evaluated at 0.25, 0.5, 1 and 2% Fmoc-F5-Phe nano-structure concentrations, and Filtek™ Ultimate Flow with no Fmoc-F5-Phe nano-structures additives, treated in the same manner, served as a control. Streptococcus mutans (S. mutans) was chosen for this evaluation as this strain is commonly found in the human oral cavity and is a significant caries-causing pathogen. Following direct contact of S. mutans bacteria with the Fmoc-F5-Phe incorporated materials the subsequent proliferation of the bacteria, was evaluated by optical density measurements over eighteen hours.
This analysis was carried out as described in Weiss et al. Endod. Dent. Traumatol. 12, 179-84 (1996), with slight modification.
S. mutans bacteria were grown in anaerobic conditions in BHI media for 48 hours and then diluted to an OD600 of 0.6 in BHI. […] were deposited onto inserts (concaved plastic surfaces designed to be suspended in the wells of 96 well-plates) coated on one side with each of the nano-assembly incorporated resin composite restoratives (four different W/W % samples of the resin composite material were evaluated at 0.25, 0.5, 1 and 2% concentrations of each nanostructure) and then incubated for one hour at 37° C. Following incubation […] was added to each well so that the inserts were submerged in the BHI and the plates were sealed to ensure anaerobic conditions. Kinetic growth inhibition was determined by optical density measurements (650 nm) using a Biotek Synergy HT microplate reader.

[10] = Shear-Punch Strength Test of nanostructure-incorporated resin composite restorative; format: physicochemical
Procedure: The effect of the incorporation of peptide nanostructures in the polymerized dental resin composite restorative on the structural integrity of the resin composite restorative was tested. A Shear-Punch Test was carried out on samples incorporating varying weight ratios of Fmoc-Pentafluoro-Phe.
A Shear-Punch Strength Test was performed according to Mount et al., Aust. Dent. 1996; J 41: 116-23. Shear Punch Strength Test. Briefly, a composition comprising the nanostructures dispersed in a pre-polymerized resin composite restorative was placed in 0.8 mm thick wash holders and light-cured to form flat parallel surfaces evenly supported and restrained by the holder. The samples were then placed in an Instron device (model 4502) for punching under a crosshead speed of 0.5 mm per minute. The maximum force applied (Fmax) was calculated as the mean of 10 different samples for each w/w % concentration of the tested nanostructure. Statistical analysis was carried out via one-way analysis of variance and Dunnett's post hoc test.

[11] = system: S. mutans; assay: Live/Dead viability analysis after contact with composite restoratives; format: cell-based, Streptococcus mutans
Procedure: To directly assess bacterial viability, treated and control bacteria were subjected to Live/Dead viability analysis, using the Live/Dead backlight bacterial viability kit and accompanying instructions, as follows. S. mutans bacteria were grown in anaerobic conditions in BHI media for 48 hours and then diluted to an OD600 of 0.6 in BHI. 100 μl of these samples were deposited onto inserts coated on one side with each of the polymeric matrices and then incubated for one hour at 37 degrees. Following incubation […] was added to each well and the plates were sealed to ensure anaerobic conditions. At each time point (initial incubation, 1 hour and 24 hours) samples were taken and washed with saline, incubated for 15 minutes in a solution containing Propidium iodide and Syto9 (L13152 LIVE/DEAD® BacLight™ Bacterial Viability Kit, Molecular Probes, OR, USA) and washed with saline again. Fluorescence emission was detected using an ECLIPSE E600 (Nikon, Japan).

[12] = Diametral Tensile Strength (DTS) test; format: physicochemical; details: 2% w/w nanostructures in Filtek composite; p>0.155
Procedure: Diametral Tensile Strength (DTS) Test was further performed to verify the difference in tensile properties (tensile strength and stiffness of the specimens characterizing the elasticity of the materials) of the 2% amalgamated material compared to the control (0%), as follows.
Disks (6 mm in diameter, 3 mm in height) of either control resin composite restorative or 2% nanoassembly-incorporated resin composite restorative were prepared in a Teflon mold similar to the specimens used for the punch shear strength. Specimens were loaded up to failure. The linear slope during loading was calculated, indicating the stiffness of the specimen, and the DTS was calculated by: […]
where P is the load at failure (N), D is the specimen diameter (mm), and t is the specimen height (mm).
The specimens were loaded via the above-mentioned loading machine using the same crosshead speed. Statistical analysis was carried out via T-test.

[13] = 0.25-1% w/w nanostructures in Filtek composite
[14] = 2% w/w nanostructures in Filtek composite

concentration at which overnight incubation completely inhibited bacterial growth (MIC analysis) ([3]; self-assembled nanostructures, cultures started at early log phase, overnight): 2000 µM
stability of occlusal fissure restorations ([4]; 30-day incubation at 37° C. in sterile PBS): remained intact and stable
color (Vita shade) versus control ([4]; Spectroshade Micro-MHT spectrophotometer): same Vita shade
amount of nanostructures released ([5]; 24 hours, 4 mg nanostructures): 0.9520 micrograms
released fraction of initial amount of incorporated nanostructures ([5]; 24 hours): less than 0.024%
amount of nanostructures released ([5]; 48 hours): 0.1805 micrograms
released fraction of incorporated nanostructures ([5]; 48 hours): below 0.0046%
amount of nanostructures released ([5]; 72 hours): 0.1088 micrograms
Fmax versus control (0%) ([10]; 0.25%, 0.5% and 1% w/w nanostructures in Filtek composite, p≥0.144): no statistically significant difference
Fmax, inferior to control (0%) by ([10]; 2% w/w nanostructures in Filtek composite, p=0.011): 9%
effect on stiffness of the specimen ([10]; nanostructures in Filtek composite, data not shown): no substantial effect
diametral tensile strength and stiffness versus control (0%) [12]: No statistically significant differences
SMILES: O=C(NC(Cc1c(F)c(F)c(F)c(F)c1F)C(=O)O)OCC1c2ccccc2-c2ccccc21 (stereo not drawn) [Fmoc-F5-Phe, Fmoc-Pentafluorophenylalanline]
effect of incorporation on cell viability (MTT) [1]: did not change the effect
effect of incorporation on cell viability (MTT) [2]: did not change the effect
bacterial growth inhibition at higher bacterial load ([3]; 2 mM nanostructures added to mid-log phase cultures): inhibited bacterial proliferation
reduction in colony-forming units ([3]; nanostructures at 2 mM, overnight, early log phase cultures): 7.2 log(10) CFU/mL
bacterial growth inhibition at lower concentrations ([3]; nanostructures below 2 mM, overnight): partially inhibiting growth in a dose-dependent manner
effect on bacterial morphology [6]: membrane fusing, clumping, and disintegration were abundant
bacteria stained with SYTOX Blue (membrane permeation) [7]: about 90%
bacterial viability (Live/Dead) [8]: significant bacterial cell death
bacterial growth inhibition [9, 13]: partially inhibit bacterial growth in a dose dependent manner
bacterial growth inhibition [9, 14]: over 95%
bacterial viability (Live/Dead) [11, 14]: bacterial cell death
bacterial viability (Live/Dead), persistence of effect ([11]; composite with nanostructures, 24 hours): persisted
bacterial viability (Live/Dead) ([11]; composite with nanostructures, one hour of treatment, versus Filtek alone): large scale bacterial death

SMILES: O=C(N[C@@H](Cc1ccccc1)C(=O)O)OCC1c2ccccc2-c2ccccc21 [Fmoc-Phe, Fmoc-phenylalanine]
bacterial growth inhibition [9, 13]: inhibited growth in a dose-dependent manner
bacterial growth inhibition [9, 14]: 60%
